# Species: Rattus norvegicus
# Assay: Open TG-GATES - Regimen: Single
# Assay type: toxicity, organism-based, Sprague-Dawley
# Parameters: regimen Single, gender Male, age 6 weeks
# Conditions: in vivo, po, 200 mg/kg, route gavage, dose level Low; for APTT / Bas / Eos / Fbg / Hb / Ht / Lym / MCH / MCHC / MCV / Mono / Neu / PT / Plat / RBC / Ret / WBC: tissue Blood; for KIDNEY_L / KIDNEY_R / KIDNEY_TOTAL: tissue Kidney; for LIVER: tissue Liver; for A/G / ALP / ALT / AST / BUN / CRE / Ca / Cl / DBIL / GLC / IP / K / LDH / Na / PL / RALB / TBIL / TC / TG / TP / gamma-GTP: tissue Plasma
compound,measurement,setting,value
NNC(=O)c1ccncc1 [ISONIAZID],TERMINAL_BW,3 h,222.6 g
same,APTT,3 h,18.4 s
same,Bas,3 h,0%
same,Eos,3 h,0.8%
same,Fbg,3 h,239.8 mg/dL
same,Hb,3 h,13.6 g/dL
same,Ht,3 h,38%
same,Lym,3 h,74.4%
same,MCH,3 h,22.1 pg
same,MCHC,3 h,35.8%
same,MCV,3 h,61.6 fL
same,Mono,3 h,2%
same,Neu,3 h,22.4%
same,PT,3 h,12.2 s
same,Plat,3 h,126 x10_4/uL
same,RBC,3 h,617.4 x10_4/ul
same,Ret,3 h,7.7%
same,WBC,3 h,80.9 x10_2/uL
same,KIDNEY_L,3 h,1 g
same,KIDNEY_R,3 h,1 g
same,KIDNEY_TOTAL,3 h,2 g
same,LIVER,3 h,9.3 g
same,A/G,3 h,1.6
same,ALP,3 h,918.8 IU/L
same,ALT,3 h,35.2 IU/L
same,AST,3 h,70 IU/L
same,BUN,3 h,8.8 mg/dL
same,CRE,3 h,0.4 mg/dL
same,Ca,3 h,10.3 mg/dL
same,Cl,3 h,105.2 meq/L
same,DBIL,3 h,0.066 mg/dL
same,GLC,3 h,211 mg/dL
same,IP,3 h,10.1 mg/dL
same,K,3 h,3.6 meq/L
same,LDH,3 h,175.2 IU/L
same,Na,3 h,142.8 meq/L
same,PL,3 h,137 mg/dL
same,RALB,3 h,3.5 g/dL
same,TBIL,3 h,0.1 mg/dL
same,TC,3 h,76.4 mg/dL
same,TG,3 h,57.8 mg/dL
same,TP,3 h,5.7 g/dL
same,gamma-GTP,3 h,1 IU/L
same,TERMINAL_BW,6 h,219 g
same,APTT,6 h,18.5 s
same,Bas,6 h,0%
same,Eos,6 h,1%
same,Fbg,6 h,225 mg/dL
same,Hb,6 h,13.7 g/dL
same,Ht,6 h,38.3%
same,Lym,6 h,76.4%
same,MCH,6 h,21.7 pg
same,MCHC,6 h,35.8%
same,MCV,6 h,60.5 fL
same,Mono,6 h,2.6%
same,Neu,6 h,19%
same,PT,6 h,12 s
same,Plat,6 h,126.8 x10_4/uL
same,RBC,6 h,633.8 x10_4/ul
same,Ret,6 h,7.6%
same,WBC,6 h,87.2 x10_2/uL
same,KIDNEY_L,6 h,0.9 g
same,KIDNEY_R,6 h,0.9 g
same,KIDNEY_TOTAL,6 h,1.9 g
same,LIVER,6 h,9.6 g
same,A/G,6 h,1.5
same,ALP,6 h,735.6 IU/L
same,ALT,6 h,28.4 IU/L
same,AST,6 h,58 IU/L
same,BUN,6 h,8.2 mg/dL
same,CRE,6 h,0.4 mg/dL
same,Ca,6 h,10.2 mg/dL
same,Cl,6 h,104.8 meq/L
same,DBIL,6 h,0.064 mg/dL
same,GLC,6 h,211 mg/dL
same,IP,6 h,9.5 mg/dL
same,K,6 h,3.9 meq/L
same,LDH,6 h,197.4 IU/L
same,Na,6 h,142.4 meq/L
same,PL,6 h,140.8 mg/dL
same,RALB,6 h,3.3 g/dL
same,TBIL,6 h,0.1 mg/dL
same,TC,6 h,76 mg/dL
same,TG,6 h,71.2 mg/dL
same,TP,6 h,5.5 g/dL
same,gamma-GTP,6 h,1 IU/L
same,TERMINAL_BW,9 h,218.2 g
same,APTT,9 h,18.8 s
same,Bas,9 h,0.2%
same,Eos,9 h,0.6%
same,Fbg,9 h,228.2 mg/dL
same,Hb,9 h,13.7 g/dL
same,Ht,9 h,37.9%
same,Lym,9 h,75%
same,MCH,9 h,21.8 pg
same,MCHC,9 h,36%
same,MCV,9 h,60.6 fL
same,Mono,9 h,3%
same,Neu,9 h,20.8%
same,PT,9 h,12.3 s
same,Plat,9 h,119 x10_4/uL
same,RBC,9 h,626.2 x10_4/ul
same,Ret,9 h,7.8%
same,WBC,9 h,82.5 x10_2/uL
same,KIDNEY_L,9 h,0.9 g
same,KIDNEY_R,9 h,0.9 g
same,KIDNEY_TOTAL,9 h,1.8 g
same,LIVER,9 h,8.8 g
same,A/G,9 h,1.7
same,ALP,9 h,793.2 IU/L
same,ALT,9 h,23.4 IU/L
same,AST,9 h,44.6 IU/L
same,BUN,9 h,9.4 mg/dL
same,CRE,9 h,0.4 mg/dL
same,Ca,9 h,10.5 mg/dL
same,Cl,9 h,105 meq/L
same,DBIL,9 h,0.064 mg/dL
same,GLC,9 h,195.2 mg/dL
same,IP,9 h,9.3 mg/dL
same,K,9 h,3.9 meq/L
same,LDH,9 h,211.4 IU/L
same,Na,9 h,142.8 meq/L
same,PL,9 h,150.2 mg/dL
same,RALB,9 h,3.5 g/dL
same,TBIL,9 h,0.1 mg/dL
same,TC,9 h,80.2 mg/dL
same,TG,9 h,77.2 mg/dL
same,TP,9 h,5.5 g/dL
same,gamma-GTP,9 h,1 IU/L
same,TERMINAL_BW,24 h,229.4 g
same,APTT,24 h,18.3 s
same,Bas,24 h,0.8%
same,Eos,24 h,1%
same,Fbg,24 h,229.2 mg/dL
same,Hb,24 h,13.5 g/dL
same,Ht,24 h,37.6%
same,Lym,24 h,78.8%
same,MCH,24 h,21.7 pg
same,MCHC,24 h,36.1%
same,MCV,24 h,60 fL
same,Mono,24 h,2.4%
same,Neu,24 h,16%
same,PT,24 h,11.7 s
same,Plat,24 h,134.2 x10_4/uL
same,RBC,24 h,626.6 x10_4/ul
same,Ret,24 h,6.5%
same,WBC,24 h,89.2 x10_2/uL
same,KIDNEY_L,24 h,1 g
same,KIDNEY_R,24 h,1 g
same,KIDNEY_TOTAL,24 h,2 g
same,LIVER,24 h,10.3 g
same,A/G,24 h,1.6
same,ALP,24 h,1043.4 IU/L
same,ALT,24 h,30 IU/L
same,AST,24 h,58.2 IU/L
same,BUN,24 h,15.6 mg/dL
same,CRE,24 h,0.4 mg/dL
same,Ca,24 h,10.8 mg/dL
same,Cl,24 h,103 meq/L
same,DBIL,24 h,0.06 mg/dL
same,GLC,24 h,200.4 mg/dL
same,IP,24 h,8.5 mg/dL
same,K,24 h,4.3 meq/L
same,LDH,24 h,221.4 IU/L
same,Na,24 h,141.8 meq/L
same,PL,24 h,139 mg/dL
same,RALB,24 h,3.6 g/dL
same,TBIL,24 h,0.1 mg/dL
same,TC,24 h,71.4 mg/dL
same,TG,24 h,101.6 mg/dL
same,TP,24 h,5.7 g/dL
same,gamma-GTP,24 h,1.4 IU/L
